Source: ChEMBL document CHEMBL6182949 (J Med Chem, 2025)
Active and inactive are the calls of the source. No cut-off for these calls is given here.

What was measured:
[1] = Plasma protein binding in mouse assessed as unbound fraction incubated for 2 hrs by rapid equilibrium dialysis; assay type: ADME, cell-free
[2] = target: Cereblon/Ikaros (Homo sapiens) (UniProt Q96SW2+Q13422); test: PROTAC activity at CRBN/IKZF1 in human PBMC cells assessed as induction of SALL4 degradation at 1 uM by Western blot analysis; assay type: cell-based
[3] = Volume of distribution at steady state in male C57BL/6 mouse at 2 mg/kg, iv measured up to 24 hrs by LC-MS/MS analysis; assay type: ADME, organism-based; settings: in vivo, read-out: Vdss
[4] = Cmax in Beagle dog at 10 mg/kg, po measured up to 24 hrs by LC-MS/MS analysis; assay type: ADME, organism-based, Canis lupus familiaris; settings: in vivo
[5] = target: Protein cereblon/Interleukin-1 receptor-associated kinase 4 (Mus musculus) (UniProt Q8C7D2+Q8R4K2); test: In-vivo PROTAC activity at C57BL/6 mouse assessed as reduction in IRAK4 level in spleen at 10 mg/kg, po measured after 24 hrs by Western blot analysis; assay type: functional, organism-based; parameters: scale not given: the % may be the effect or the level left
Mus musculus = test: Anti-psoriasis effect in IMQ-induced C57BL/6 mouse assessed as reduction in spleen weight at 100 mg/kg administered topically twice daily for 6 days and measured after 24 hrs; assay type: functional, organism-based; settings: time 7.0 day

Protein cereblon/Interleukin-1 receptor-associated kinase 4 (Mus musculus), sequence (Q8C7D2 whole entry, looked up): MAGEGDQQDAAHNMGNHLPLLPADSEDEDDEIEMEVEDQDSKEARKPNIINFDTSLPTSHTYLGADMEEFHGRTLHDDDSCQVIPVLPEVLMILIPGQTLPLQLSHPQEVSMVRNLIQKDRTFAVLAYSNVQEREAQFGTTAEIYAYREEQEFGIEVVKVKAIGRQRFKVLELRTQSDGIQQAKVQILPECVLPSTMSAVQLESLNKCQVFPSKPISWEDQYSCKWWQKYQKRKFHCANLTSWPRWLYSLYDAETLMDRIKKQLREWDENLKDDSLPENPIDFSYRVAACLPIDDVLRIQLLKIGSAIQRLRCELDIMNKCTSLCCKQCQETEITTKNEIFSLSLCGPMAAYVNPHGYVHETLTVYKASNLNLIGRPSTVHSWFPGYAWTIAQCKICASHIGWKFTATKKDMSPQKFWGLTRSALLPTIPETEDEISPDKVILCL
Protein cereblon/Interleukin-1 receptor-associated kinase 4 (Mus musculus), sequence (Q8R4K2 whole entry, looked up): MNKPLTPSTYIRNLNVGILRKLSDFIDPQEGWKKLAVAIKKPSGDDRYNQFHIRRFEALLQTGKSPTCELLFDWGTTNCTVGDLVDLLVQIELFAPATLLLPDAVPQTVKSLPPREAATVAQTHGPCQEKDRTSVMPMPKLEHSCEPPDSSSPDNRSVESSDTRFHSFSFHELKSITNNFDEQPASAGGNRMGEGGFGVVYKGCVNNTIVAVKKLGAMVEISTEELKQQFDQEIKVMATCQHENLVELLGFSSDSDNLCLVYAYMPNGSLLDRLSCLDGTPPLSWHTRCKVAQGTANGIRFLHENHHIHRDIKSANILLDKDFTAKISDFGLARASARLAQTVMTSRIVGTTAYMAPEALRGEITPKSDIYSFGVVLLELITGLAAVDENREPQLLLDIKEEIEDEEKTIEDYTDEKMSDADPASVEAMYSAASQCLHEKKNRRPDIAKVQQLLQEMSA

Cn1c(=O)n(C2CCC(=O)NC2=O)c2cccc(C#CCO[C@H]3CC[C@H](CN4CCC5(CC4)Cc4cc(NC(=O)c6coc7cccnc67)c(N6CCC(CO)CC6)cc4O5)CC3)c21 (stereo partly specified)
Fu [1]: 0.09% | Activity [2]: inactive | Vd [3]: 0.88 L/kg | Cmax [4]: 360 ng/mL | Activity [5]: 74% | Activity (Mus musculus): Active
